The results in this text go back to PubChem BioAssay (NCI).

Molecules are shown by their SMILES. Values joined by “and” are separate entries in the source; they are usually repeats but may differ in a detail not shown here. Equal values may be shown once.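 In this assay, cells in 96-well plates receive the compound at five concentrations for 48 hours. Endpoints are linearly interpolated between the surrounding concentrations. At the GI50, growth is halved. TGI denotes the concentration required for complete inhibition of growth.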

In the test the test system is MDA-MB-468 breast. Put plainly: NCI-60 cell line screen, 48 h.
For `CCc1c[nH]c2ncnc(N3CC[C@](N)(CNC(=O)c4ccc(F)cc4F)C3)c12`, the GI50 was 139 nM and the TGI turned out to be 2230 nM.

As for `Cc1cc(N(CCCl)CCCl)ccc1/C=N\NC(=O)c1cccnc1`, the GI50 is 1460 nM and the TGI worked out at 5410 nM.

Turning to `O=C1C(=O)c2c(ccc3ccccc23)-c2ccccc21`, the GI50 is 1560 nM and the TGI was found to be 3260 nM.

Regarding `COc1cc(/C=C/C(=O)c2c(-c3ccc(Cl)cc3)nc3sc(C)nn23)cc(OC)c1OC`, the GI50 is 6470 nM and the TGI was greater than 100000 nM.

As for `COc1cc2nccc(Oc3ccc(NC(=O)C4(C(=O)Nc5ccc(F)cc5)CC4)cc3)c2cc1OC`, the GI50 is > 10000 nM and 4350 nM; the TGI is > 10000 nM and 64500 nM.

`CCn1c(SC)nnc1-c1cc2c([nH]c3ccccc32)c(-c2cccc(O)c2)n1`: the GI50 is 598 nM and the TGI worked out at 8220 nM.

As for `COc1cc(/C=N/n2cnc3oc(-c4ccccc4)cc3c2=N)cc(CN2CCCCC2)c1O`, the GI50 was 1800 nM and the TGI is 3650 nM.

Turning to `Cn1c(=O)c(Oc2ccc(F)cc2F)cc2cnc(NC3CCC(O)CC3)nc21` (centres undefined), the GI50 is greater than 25000 nM and the TGI is greater than 25000 nM.

With `CC[C@@H](CO)Nc1ccc2ncc(C#Cc3cncc(C(=O)Nc4ccc(CN5CCN(C)CC5)c(C(F)(F)F)c4)c3)n2n1`, the GI50 was 77.9 nM and the TGI amounted to 194 nM.

For the compound `CN(C)C(=O)c1cc2cnc(Nc3ccc(N4CCNCC4)cn3)nc2n1C1CCCC1`, the GI50 was 13500 nM and the TGI is 37600 nM.

As to `Cc1cccc(Cc2cnc(NC(=O)CCCOc3ccc(Cl)cc3)s2)c1`, the GI50 was 1740 nM and the TGI was greater than 100000 nM.

Take `OCCn1c(-c2ccncc2)c(-c2ccc(F)cc2)c2ncccc21`: the GI50 is greater than 25000 nM and the TGI is greater than 25000 nM.

For `O=C1COc2c(CCNCCN(C(=O)CCNCCc3ccc(Cl)c(Cl)c3)C3CCCCC3)ccc(O)c2N1`, the GI50 was 2770 nM and the TGI came out at 9420 nM.

For `COc1ccc(C[C@H](N)C(=O)N[C@@H]2[C@@H](CO)OC(n3cnc4c(N(C)C)ncnc43)[C@@H]2O)cc1` (some centres undefined), the GI50 was 134 nM and the TGI amounted to 678 nM.

On to `COc1cc2c(cc1OCCCN1CCN(CCCn3c4ccccc4c4ccccc43)CC1)N=C[C@@H]1CCCN1C2=O`, for which the GI50 was 23.8 nM and the TGI was found to be 67.7 nM.

For the compound `O=C(COC(=O)[C@H](C[Se][Se]C[C@H](NC(=O)c1ccc(Br)cc1F)C(=O)OCC(=O)c1ccc(F)cc1)NC(=O)c1ccc(Br)cc1F)c1ccc(F)cc1`, the GI50 was 580 nM and the TGI was found to be 1680 nM.

Regarding `Nc1ccc(N)c2c1C(=O)c1cccc([N+](=O)[O-])c1C2=O`, the GI50 was 3410 nM and the TGI was greater than 56800 nM.

Turning to `Oc1ccc(/C=N/Nc2nnc(N/N=C/c3ccc(O)cc3O)c3ccccc23)c(O)c1`, the GI50 was 355 nM and the TGI was found to be 1770 nM.

For the compound `CCC(=C(c1ccc(OCCN(CC)CC)cc1)c1ccc(OCCN(CC)CC)cc1)c1ccc(Cl)cc1`, the GI50 was 535 nM and the TGI came out at 1050 nM.

In the case of `C/C(=N\NC(=O)c1ccncc1)c1ccccc1O`, the GI50 is 2040 nM and the TGI came to 9060 nM.

As for `CS(=O)(=O)Nc1ccc(Nc2c3ccccc3nc3cc(Cl)ccc23)cc1`, the GI50 is 1990 nM and the TGI was 9880 nM.

Regarding `Fc1ccc(-c2cc3nc(C(Cl)Cl)nc(-c4ccc(F)cc4)n3n2)cc1`, the GI50 is 242 nM and the TGI amounted to 1080 nM.

Regarding `O=C(Nc1cccc(C(F)(F)F)c1)Nc1cc(S(=O)(=O)NC2CC2)ccc1-c1ccsc1`, the GI50 was 3100 nM and the TGI was determined as 13800 nM.

Regarding `Cc1c(-c2ccc(N3CCc4cccc(C(=O)Nc5nc6ccccc6s5)c4C3)nc2C(=O)O)cnn1CC12CC3CC(CC(C3)C1)C2`, the GI50 was 6580 nM and the TGI worked out at 26500 nM.

On to `c1csc(-c2[nH]nc3c2CCc2ccccc2-3)c1`, for which the GI50 was 175 nM and the TGI was 494 nM.

Consider `CC(=O)Nc1ccc(C(=O)COc2cccc(/C=C3\CCc4ccccc4C3=O)c2)cc1`, for which the GI50 was 3630 nM and the TGI was greater than 100000 nM.

In the case of `CN1CCN(Cc2ccc(NC(=O)c3cncc(C#Cc4cnc5ccc(NCCCO)nn45)c3)cc2C(F)(F)F)CC1`, the GI50 is 87 nM and the TGI was 228 nM.

Regarding `O=C(c1ccccc1)c1ccc(N2C(=O)C3C4c5ccccc5C(/C=C/C(=O)c5ccccn5)(c5ccccc54)C3C2=O)cc1` (centres undefined), the GI50 was 2390 nM and the TGI came to 6990 nM.

For the compound `O=C(NCc1cccnc1)c1ccc([N+](=O)[O-])o1`, the GI50 is 5310 nM and the TGI is greater than 29000 nM.

As for `C/C=C\C(=O)O[C@@H]1CC2O[C@@H]3C=C(C)C(=O)C[C@]3(C)[C@]1(C)[C@]21CO1`, the GI50 was 567 nM and the TGI was found to be 2130 nM.

For the compound `CN1CCN(Cc2ccc(NC(=O)c3cncc(C#Cc4cnc5cccnn45)c3)cc2C(F)(F)F)CC1`, the GI50 was 1970 nM and the TGI is 8220 nM.

Consider `COc1ccc(Cl)cc1Nc1nc(C(F)(F)F)ccc1C(=O)N/N=C/c1ccc(Cl)cc1`, for which the GI50 was 3960 nM and the TGI was greater than 100000 nM.

In the case of `CC(=O)OC1CCC2(C)C(=CCC3C4CC(CN5CC5)C(=O)C4(C)CCC32)C1` (centres undefined), the GI50 was 1680 nM and the TGI stood at 4490 nM.

Consider `CCNc1nc(-c2ccc(Cl)c(OC)c2)c(-c2ccnc(NCCNS(=O)(=O)c3ccc(Cl)cc3)n2)s1`, for which the GI50 was 1960 nM and the TGI was determined as 5610 nM.

On to `COc1ccc(S(=O)(=O)NCCCNc2nccc(-c3c(-c4ccc(F)cc4)nc4sccn34)n2)cc1`, for which the GI50 is 4300 nM and the TGI was greater than 100000 nM.

Take `O=C(Nc1cccc(C(F)(F)F)c1)Nc1ccc(OCc2nnc(-c3ccccc3)o2)c(F)c1`: the GI50 is 2570 nM and the TGI came out at 13900 nM.

On to `COc1cc(-c2nn(-c3cccc(NC(=O)c4cccc(C(F)(F)F)c4)c3)cc2-c2ccncc2)ccc1Cl`, for which the GI50 was 1320 nM and the TGI came to 4560 nM.
